Assay results published in patent US20260284020A1, “LATS KINASE INHIBITOR TO TREAT RETINAL DEGENERATION” (Children's Hospital Los Angeles, priority 2023, published 2026).
Entries after “also recorded” stand apart in the source; their conditions may differ.

Tests used:
Solubility of the drug = assay type: physicochemical
[1] = system: RPE injury by laser photocoagulation in Dutch-belted rabbits; assay: In vivo laser injury model: retinal immunohistochemistry, quantification of cell proliferation; set-up: species or system rabbit; conditions: for percentage of Ki67+ cells in the choroid vs control (in words): 1- or 4-week time points
Experimental: (§1) Following the laser procedure, the eyes were anesthetized once more with topical proparacaine. Povidone-iodine was applied to the conjunctiva or sclera using sterile Q-tips. Either 50 μL of 15 mM LATS kinase inhibitor (LKI), or vehicle control, was injected per eye using 1 mL Luer-lock syringe with a 27G 1½ inch needle. The second generation LKI, TDI-011536, was used as a micro-suspension formulation prepared in phosphate buffer solution (PBS; Sigma) supplemented with 0.5% carboxymethyl cellulose (Sigma) and 0.5% Kolliphor P 188 Bio (BASF Pharma). Intravitreal injections containing LKI were administered in the right eye and control injections were administered in the left eye. Injections were administered 1-2 mm posterior to the superotemporal or superonasal limbus and delivery of each compound was confirmed on indirect ophthalmoscopy.
Eyes used for immunofluorescence staining were processed according to a previously described protocol. Briefly, eyes were immediately placed in 50 mL 4% PFA in PBS on ice. After 15 minutes, eyes were removed from 4% PFA in PBS and the cornea and iris were removed under a dissecting microscope. With the cornea and iris removed, eyes were placed back in 50 mL 4% PFA and agitated overnight at 4° C. The following morning, the lens was removed. Eyes were then placed in 50 mL of 30% sucrose in PBS at 4° C. for cryoprotection. Once cryoprotection was complete, eyes were removed from 30% sucrose solution and embedded in optimal cutting temperature (OCT) compound.
Following embedding, eyes were mounted on a Leica cryostat (Leica Microsystems, Wetzlar, Germany) for sectioning. All retinal sections were 14 μm thickness and attached to a glass slide. A list of materials used can be found in Table 1.
To quantify RPE proliferation at the site of laser injury in vivo, regions 400 μm in width were centered on the outer nuclear layer (ONL) defect. Laser spots with ONL defects <30 μm in diameter, retinal detachments >225 μm, or an adjacent laser spot <200 μm away from the center of the ONL defect were excluded from analysis. Additionally, laser spots with significant tissue folding or tears were excluded. RPE cross-sectional area in μm^2 was obtained using the Wand Tool in QuPath using the RPE65 channel. RPE proliferation was quantified as the number of Ki67+ cells divided by DAPI+ cells within the RPE layer, expressed as a percentage. Choroidal proliferation was quantified as the number of Ki67+ cells divided by DAPI+ cells in the choroid.
To evaluate the effect of LKI on Müller glia at the site of injury, glial cell proliferation was quantified as the number of Ki67/Sox2 doubly positive cells divided by total number of Sox2/DAPI doubly positive cells within the 400 μm laser region, expressed as a percentage.
To evaluate the effect of LKI in undamaged retina, regions 400 μm in width in the peripheral retina were analyzed. The percentages of Ki67+ cells in the RPE layer, Ki67/Sox2 doubly positive cells, and Ki67+ cells in the choroid in unaffected regions were calculated in an identical fashion.
To further evaluate the effect of Lats kinase inhibition on the RPE injury response in vivo, eyes injected with LKI (n=9 eyes) or vehicle (n=8 eyes) from three independent experiments were cryosectioned and immunolabeled with Ki-67, a marker of cell proliferation. Additionally, sections were labeled with RPE65 to visualize RPE, Sox2 to visualize Müller glia, and Dapi to label all cell nuclei. […] RPE cross-sectional area was 14129±5605 μm^2 in LKI laser spots and 6221±914.2 μm^2 in control laser spots (P<0.0001). RPE maximal thickness was 56.36±19.23 μm in LKI laser spots and 23.08±8.46 μm in control laser spots (P<0.0001). Within the RPE layer, there was a significant increase in Ki67+ cells with LKI compared to the control (FIG. 5A, 5D). The percentage of Ki67+ RPE was 8.75±4.22% in LKI laser spots and 1.55±3.21% in control laser spots (P<0.001). […]

Dutch-belted rabbits = assay: Toxic effects / tolerability of intravitreal injection in vivo; set-up: species or system rabbit
Experimental: as §1

[2] = system: primary human fetal RPE monolayers; assay: PAX6 / RPE differentiation marker expression of EdU+ RPE cells after scratch; assay type: cell-based
Experimental: Ninety-six hours after the scratch, cells were immediately fixed with 4% paraformaldehyde (PFA) in phosphate-buffered saline (PBS) for 15 minutes at room temperature (RT). Cells were washed three times with PBS in between each step. Following fixation, cells were blocked and permeabilized with 3% bovine serum albumin (BSA) and 0.1% Triton X-100 in PBS for 2 hours at RT. Cells were then incubated with an EdU reaction cocktail according to the manufacturer's instructions for 30 minutes at RT, protected from light. Then, cells were incubated overnight with primary antibodies diluted in 3% BSA in PBS. The following morning, cells were incubated with secondary antibodies diluted in 3% BSA in PBS for 2 hours at RT, protected from light. Cells were counterstained with DAPI and then washed. A list of reagents and dilutions used can be found in Table 1.
Within each region, cell proliferation was quantified by dividing EdU/DAPI doubly positive cells by the total number of DAPI+ cells, expressed as a percentage. PAX6 expression was quantified as the ratio of PAX6+ nuclei among EdU/DAPI doubly positive nuclei, also expressed as a percentage.
In order to characterize RPE cell fate in response to Lats kinase inhibition in the context of injury, cells were stained with PAX6 and RPE65.

[3] = laser spots, 1 week, intravitreal 50 μL of 15 mM, mean±SD
[4] = laser spots, 1 week, listed as LKI

## O=C(/N=c1\scc(CO)n1Cc1ccccc1)c1c[nH]c2ncccc12 [TDI-011536]
Solubility of the drug
  solubility (in words): highly insoluble
[1]; 1 week, listed as LKI
  Ki67+ (Sox2/Ki67 doubly positive) Müller glia in undamaged regions (outside of laser spots): no Sox2/Ki67++ cells
  Ki67+ cells within the RPE layer in undamaged regions (outside of laser spots): no Ki67+ RPE cells
[1]; 4 weeks, listed as LKI
  Ki67+ (Sox2/Ki67 doubly positive) Müller glia in undamaged regions: no Sox2/Ki67++ cells
  Ki67+ cells within the RPE layer in undamaged regions: no Ki67+ RPE cells
[1]; laser regions
  percentage of Ki67+ cells in the choroid vs control (in words): no significant difference
[1]; [3]
  RPE cross-sectional area: 14129±5605 μm^2
  RPE maximal thickness: 56.36±19.23 μm
[1]; [4]
  Ki67+ Sox2+ cells (Müller glia) compared to control (in words): Sox2+ and Ki67+Müller glia were observed; also recorded: significantly in increased
  RPE cross-sectional area compared to control (in words): increase in underlying RPE cross-sectional area; also recorded: significantly increased
  percentage of Ki67+ RPE cells compared to control (in words): increase; also recorded: significantly increased
[1]; laser spots, 1 week, mean±SD
  Ki67+ cells within the choroid: 6.66±5.37%
  percentage of Ki67+ RPE (Ki67+ cells within the RPE layer): 8.75±4.22%
  percentage of Ki67+ Sox2+ cells (Müller glia): 11.00±5.11%
[1]; laser spots, 4 weeks
  Ki67+ Sox2+ cells (Müller glia) compared to control (in words): no significant difference
  RPE maximal thickness compared to control (in words): increase in underlying RPE cross-sectional area and maximal thickness
  percentage of Ki67+ RPE cells compared to control (in words): no significant difference
[1]; laser spots, 4 weeks, intravitreal 50 μL of 15 mM, mean±SD
  RPE cross-sectional area: 15800 ± 6530 µm²
[1]; laser spots, 4 weeks, listed as LKI
  RPE cross-sectional area compared to control (in words): increase in RPE cross-sectional area; also recorded: significantly increased
[1]; laser spots, 4 weeks, mean±SD
  Ki67+ cells within the choroid: 0.39±0.71%
  percentage of Ki67+ RPE (Ki67+ cells within the RPE layer): 0.29±0.90%
  percentage of Ki67+ Sox2+ cells (Müller glia): 1.23±3.25%
[1]; rabbits, intravitreal 50 μL of 15 mM microsuspension
  overall effect of intravitreal LKI microsuspension in the laser injury model (in words): extensive RPE proliferation and wound healing without measurable effects on off-target cell types or uninjured regions
[1]; undamaged regions
  percentage of Ki67+ cells in the choroid vs control (in words): no significant difference
Dutch-belted rabbits; animal model
  tolerability of intravitreal injection: well-tolerated
Dutch-belted rabbits; rabbit, in vivo
  toxic effects in vivo: no toxic effects
[2]; 96 hours post-scratch
  EdU/PAX6 doubly positive cells in the scratch site, LKI vs control (in words): no significant difference
[2]; 96 hours post-scratch, scratch site
  EdU+ cells within the original scratch site that expressed PAX6: 99.67±1.46%
[2]; in vitro injury model, after exposure
  expression of early and late markers of RPE differentiation (in words): nearly all RPE cells expressed both early and late markers of RPE differentiation
